Test [1] concerns human c-Myc promoter G4 (DNA, G4) TGAGGGTGGGTAGGGTGGGTAA
Kind of test: UV melting at 295 nm. As to conditions: 30 mM sodium cacodylate pH 7.4, 0.5 mM EDTA, 4 μM DNA, DNA:peptide 1:50, derived from two Tm.

Test [2] shares this test system. Kind of test: fluorescence titration of peptide with G4. As to conditions: 30 mM sodium cacodylate pH 7.4, 0.5 mM EDTA, 25 °C, printed Ka in μM, Ka or Kd ambiguous.

Where a SMILES comes first, the peptide text is derived from it.

As usually defined, the ΔTm is the change in melting temperature against a reference sample. Turning to `CC(C)C[C@H](NC(=O)[C@@H](N)CC(N)=O)C(=O)N[C@@H](CCC(=O)O)C(=O)N[C@@H](CCCCN)C(=O)N[C@@H](CCCCN)C(=O)N[C@@H](CCCCN)C(=O)N1CCC[C@H]1C(=O)NCC(=O)O` (H-NLEKKKPG-OH), the ΔTm in test [1] (100 mM K+) turned out to be 0.9 °C; in test [1] (100 mM Na+) it was 3.7 °C. The values for the Ka in test [2] (100 mM K+) and in test [2] (100 mM Na+) were 0.1277 ± 0.073 µM and 0.1369 ± 0.008 µM, respectively.
